Assay results taken from publication PMC3367438 (2011).

Molecular target: Aβ42 (β-amyloid peptide) (Homo sapiens, UniProt P05067)
Experiment: fluorescence polarization of the intrinsically fluorescent probe
Type: binding

Aβ42 (β-amyloid peptide), sequence (P05067 672-713 limits assumed): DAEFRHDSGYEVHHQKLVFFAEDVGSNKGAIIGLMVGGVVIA

COc1cc(C=CC(=O)C(Cc2cn(CCCCCCNC(=O)CCNC(=O)CCNC(=O)COC3CCC4(C)C(=CCC5C4CCC4(C)C(C(C)CCCC(C)C)CCC54)C3)nn2)C(=O)C=Cc2ccc(O)c(OC)c2)ccc1O (stereo not shown) [compound 7, BMAOI 14]
Kd: 830 nM
